Source: US6384045B1, “Tricyclic and tetracyclic pyrones” (Kansas State University Research Foundation, priority 1997, dated 2002)
“Also recorded” adds a separate entry of the source.

How the values were obtained:
[1] = system: T1, liver and intestinal microsomal ACAT; assay: Inhibition of liver and intestinal microsomal ACAT activity; type: biochemical
T1 construct: other: 100 μM; other: 44 nM; other: 50 μM
Protocol: . Microsomes were prepared from liver and intestinal mucosal scrapings by sequential centrifugation and in vitro ACAT activity assays were done according to the method of Billheimer (Billheimer, J. T. (1985), “Cholesterol acyltransferase,” In Methods in Enzymology 111:286-293). Briefly, 100 μg microsomal protein, 22 μg BSA, and 52 nmol cholesterol and the synthesized drug in 5 μL DMSO were preincubated for 30 minutes at 37° C. in a phosphate buffer (200 μL total volume). After 30 minutes, 1 nmol [^14C]oleoyl-CoA was added as substrate and incubated for an additional 20 minutes. The reaction was stopped with the addition of 1 mL ethanol and lipids were extracted with hexane. Cholesteryl [^14C]oleate formation was quantified by thin-layer chromatography and data are expressed as percent inhibition of ACAT activity (pmol/μg protein per minute) compared to a control sample incubated with no drug. All samples were run in duplicate. […]

[2] = system: L1210 lymphoblastic leukemia cells; assay: Inhibition of L1210 tumor cell growth in vitro (Coulter counter); type: cell-based, Murine; settings: for inhibition of L1210 cell growth (% reduction of control cell numbers): 50 μM, 3 and 4 days in culture; for reduction of L1210 cell numbers vs control: 0.78 μM
Protocol: Cells were plated at an initial density of 1×10^4 cells/0.5 ml/well in RPMI 1640 medium, containing 7.5% fortified bovine calf serum, and grown at 37° C. for 4 days in a humidified incubator in 5% CO2 in air. Cells were incubated in the presence or absence (^•, control) of 50 μM 3A (▪), 2D & 2E (□),3D & 3E (▴), 2B & 2C (Δ) 2A (♦), 3B & 3C (⋄), or 10 μM CPT (∘) and their density was monitored in triplicate every 24 h using a Coulter counter. Cells numbers are plotted on a logarithmic scale.
(§1) All solutions of tricyclic pyrone analogs were dissolved and diluted in 100% ethanol (ETOH), whereas CPT (Sigma Chemical Co., St. Louis, Mo.) solutions were prepared in 100% dimethyl sulfoxide (DMSO). Murine L1210 lymphoblastic leukemia cells, obtained from the American Type Culture Collection (Rockville, Md.), were maintained in continuous exponential growth by twice-a-week passage in RPMI 1640 medium supplemented with 7.5% fortified bovine calf serum (HyClone Laboratories, Inc., Logan, Utah). The cultures were incubated at 37° C. in a humidified atmosphere containing 5% CO2. All drugs were supplemented to the culture medium in 1- or 2 μl aliquots. The concentration of vehicle in the final incubation volume never exceeded 0.2-0.4%. […] Control cells incubated in the absence of drugs were similarly treated with vehicle only and, in every experiment, all incubates received the same volume of solvent.
For tumor cell growth, L1210 cells were resuspended in fresh serum-containing RPMI 1640 medium, plated at an initial density of 1×10^4 cells/0.5 ml, and incubated in 48-well Costar cell culture plates (Costar, Cambridge, Mass.). Cells were grown for 4 days in the presence or absence of drugs and their density was monitored every 24 h using a Coulter counter (Coulter Electronics, Ltd., Luton Beds, England). Data of all in vitro experiments were analyzed using Student's t-test with the level of significance set at P<0.05.

[3] = system: L1210 lymphoblastic leukemia cells; assay: Inhibition of DNA synthesis (3H-thymidine incorporation) in L1210 cells in vitro; type: cell-based, Murine
Protocol: FIG. 1 illustrates a comparison of the effects of four new tricyclic pyrone derivatives and CPT on DNA synthesis in L1210 cells in vitro. About 2.53×10^6 cells suspended in 0.5 ml of RPMI 1640 medium were incubated at 37° C. for 90 minutes in the presence or absence (control) of the indicated concentrations of drugs. The cells were then pulse-labeled for an additional 30 minutes to determine the rate of ^3H-thymidine incorporation into DNA. DNA synthesis in vehicle-treated control cells was 43,956±4,569 cpm (100±11%). The blank value (1,241±99 cpm) for cells pulse-labeled for 0 minutes with 1 μCi of ^3H-thymidine has been subtracted from the results. Bars: means±SD (n=3).
as §1
For DNA synthesis, L1210 cells were resuspended in fresh serum-free RPMI 1640 medium at a density of about 2.5×10^6 cells/0.5 ml. The cells were incubated at 37° C. for 90 min in the presence or absence of drugs and then pulse-labeled for an additional 30 min with 1 μCi of [methyl-^3H]thymidine (51 Ci/mmol; Amersham Corp., Arlington Heights, Ill.). The incubations were terminated by the addition of 0.5 ml of 10% trichloroacetic acid (TCA). After holding on ice for 15 min, the acid-insoluble material was recovered over Whatman GF/A glass microfibre filters and washed thrice with 2 ml of 5% TCA and twice with 2 ml of 100% EtOH. After drying the filters, the radioactivity bound to the acid-precipitable material was determined by liquid scintillation counting in 10 ml of Bio-Safe NA (Research Products International Corp., Mount Prospect, Ill.).

[4] = biological target: acetylcholinesterase (AChE) (UniProt O42275); type: biochemical, electric eel; fetal bovine serum; settings: read-out: AChE inhibition constant Ki ± std. error; 30° C., pH 8.0
Protocol: Acetylcholinesterase Assay and Inhibition Kinetics: Tricyclic pyrones of this invention were tested for inhibition of AChE. […] Reactions were carried out at 30° C. in 0.1 M sodium phosphate buffer at pH 8.0 in the presence of […] and 3.3×10^−4 M 3-carboxy-4-nitrophenyl disulfide. Aliquots of incubating mixtures containing enzyme alone, or enzyme in the presence of each carbamate, were withdrawn at selected time intervals and assayed for enzyme activity in order to obtain kinetic data. From the kinetic data, inhibition and bimolecular rate constants were calculated by the equation: [formula]
in which kapp is the pseudo-first-order rate constant.

[5] = 50 μM, 90 min + 30 min pulse, 50 µM

Chain of acetylcholinesterase (AChE) (O42275 whole entry): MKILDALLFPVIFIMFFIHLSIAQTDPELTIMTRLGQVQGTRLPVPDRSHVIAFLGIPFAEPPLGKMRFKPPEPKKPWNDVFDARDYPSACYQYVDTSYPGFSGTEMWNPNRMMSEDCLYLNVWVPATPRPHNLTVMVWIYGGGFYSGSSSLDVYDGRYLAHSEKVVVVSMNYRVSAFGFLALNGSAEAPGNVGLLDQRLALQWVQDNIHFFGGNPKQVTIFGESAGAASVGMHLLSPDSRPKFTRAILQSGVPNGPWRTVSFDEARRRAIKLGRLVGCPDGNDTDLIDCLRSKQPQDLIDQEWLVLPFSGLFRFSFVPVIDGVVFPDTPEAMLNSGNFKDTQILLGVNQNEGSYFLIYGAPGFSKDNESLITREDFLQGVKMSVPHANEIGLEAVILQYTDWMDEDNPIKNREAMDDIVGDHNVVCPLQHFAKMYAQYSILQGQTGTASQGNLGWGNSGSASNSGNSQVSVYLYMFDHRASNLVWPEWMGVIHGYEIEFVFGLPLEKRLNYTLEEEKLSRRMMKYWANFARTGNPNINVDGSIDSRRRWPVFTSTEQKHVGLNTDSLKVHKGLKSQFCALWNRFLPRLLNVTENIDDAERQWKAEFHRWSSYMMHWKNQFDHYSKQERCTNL

Row | Molecule | % Inhibition of ACAT ([1]; 50 μM) | % Inhibition of ACAT ([1]; 100 μM) | Ki [4] | other results
1 | O=c1oc(-c2cccnc2)cc2c1[C@@H](O)[C@@]1(O)CCCC[C@@H]1O2 (relative stereo) [Compound 38B, (5aS*,9aR*,10R*)-9a,10-Dihydroxy-3-(3-pyridyl)-1H-5a,6,7,8,9,9a,10-heptahydro-1-oxopyrano[4,3-b][1]benzopyran] | 9.7% | 11.4% |  | 
2 | CC12Oc3cc(-c4cccnc4)oc(=O)c3C=C1CCCC2O (stereo not drawn) [2B & 2C, cis- and trans-3-(3-pyridyl)-5a-methyl-6-hydroxy-1H-5a,6,7,8,9-pentahydro-1-oxopyrano[4,3-b]benzopyran] |  |  |  | inhibition of L1210 cell growth (% reduction of control cell numbers) [2]: cannot inhibit the growth
3 | CC12Oc3cc(-c4cccnc4)oc(=O)c3C=C1CCCC2OC=O (stereo not drawn) [2D & 2E, cis- and trans-3-(3-pyridyl)-5a-methyl-6-formyloxy-1H-5a,6,7,8,9-pentahydro-1-oxopyrano[4,3-b]benzopyran] |  |  |  | inhibition of L1210 cell growth (% reduction of control cell numbers) [2]: cannot inhibit the growth; inhibition of DNA synthesis in L1210 cells ([3]; 25 μM, 90 min + 30 min pulse): no significant effects; inhibition of DNA synthesis in L1210 cells [3, 5]: 49%
4 | CCCCCCCC[C@H](SCCCCCC)C(=O)Nc1c(SC)cc(C)nc1SC [CP-113,818, reference compound] |  |  |  | % Inhibition of ACAT ([1]; 44 nM): 42.5%
5 | CC[C@@]1(O)C(=O)OCc2c1cc1n(c2=O)Cc2cc3ccccc3nc2-1 [CPT, 20(S)-camptothecin (CPT), reference compound] |  |  |  | reduction of L1210 cell numbers vs control ([2]; 1 day): 46%; reduction of L1210 cell numbers vs control ([2]; 2 days): 85%; reduction of L1210 cell numbers vs control ([2]; 3 days): 97%; reduction of L1210 cell numbers vs control ([2]; 4 days): 99%; IC50 ([3]; Mus musculus, L1210, 2 h, read-out: concentration that inhibits DNA synthesis by 50% (IC50)): ~0.65 µM
6 | Cc1cc2c(c(=O)o1)C=C1CCCCC1O2 (stereo not drawn) [Compound 1A, 3-methyl-1H-5a,6,7,8,9-pentahydro-1-oxopyrano[4,3-b]-[i]benzopyran] |  |  | 7 ± 1.2 µM | inhibition at 50 µM ([3]; Mus musculus, L1210, 50 μM, 90 min + 30 min pulse): 17 to 32%
7 | Cc1cc2c(c(=O)o1)C=C1CCC[C@H](O)[C@@]1(C)O2 [Compound 1B, cis-3-5a-dimethyl-6-hydroxy-1H-5a,6,7,8,9-pentahydro-1-oxopyrano[4,3-b][1]benzopyran] |  |  | 20 ± 5.8 µM | 
8 | Cc1cc2c(c(=O)o1)C=C1CCCC(OC=O)C1(C)O2 (stereo not drawn) [Compound 1D, cis-3-5-a-dimethyl-6-formyloxy-1H-5a,6,7,8,9-pentahydro-1-oxopyrano[4,3-b][1]benzopyran] |  |  | 5 ± 1.7 µM | IC50 ([1]; using literature IC50 of pyripyropene as standard): 52 µM
9 | CC12Oc3cc(-c4cccnc4)oc(=O)c3C=C1CCCC2O (stereo not drawn) [Compound 2B, cis-3-(3-pyridyl)-5a-methyl-6-hydroxy-1H-5a,6,7,8,9-pentahydro-1-oxopyrano[4,3-b][1]benzopyran] |  |  | 8 ± 2.3 µM | 
10 | CC12Oc3cc(-c4cccnc4)oc(=O)c3C=C1CCCC2OC=O (stereo not drawn) [Compound 2D, cis-3-(3-pyridyl)-5a-methyl-6-formyloxy-1H-5a,6,7,8,9-pentahydro-1-oxopyrano[4,3-b][1]benzopyran] |  |  | 26 ± 2.3 µM | 
11 | COc1ccc(-c2cc3c(c(=O)o2)C=C2CCCC(O)C2(C)O3)cc1OC (stereo not drawn) [Compound 3B, cis-3-(3,4-dimethoxyphenyl)-5a-methyl-6-hydroxy-1H-5a,6,7,8,9-pentahydro-1-oxopyrano[4,3-b][1]benzopyran] |  |  | 4 ± 0.6 µM | 
12 | COc1ccc(-c2cc3c(c(=O)o2)C=C2CCCC(OC=O)C2(C)O3)cc1OC (stereo not drawn) [Compound 3D, cis-3-(3,4-Dimethoxyphenyl)-6-formyloxy-5a-methyl-1H-5a,6,7,8,9-pentahydro-1-oxopyrano[4,3-B][1]benzopyran] |  |  | 15 ± 5.8 µM | 
13 | O=c1occc2nc3c(cc12)CCCC3 [Compound 24, 1H-6,7,8,9-tetrahydro-1-oxopyrano[4,3-b]quinoline] | 1.9% | 3.3% |  | 
14 | Cc1cc2ncc3c(c2c(=O)o1)CCCC3 [Compound 26, 1H-3-methyl-7,8,9,10-tetrahydropyrano[4,3-c]isoquinolin-1-one] | 2.7% | 13.7% |  | 
15 | C=C(C)[C@H]1CCC2=Cc3c(cc(C)oc3=O)O[C@H]2C1 [Compound 28, (5aS,7S)-7-Isopropenyl-3-methyl-1H-5a,6,7,8,9-pentahydro-1-oxopyrano[4,3-b][1]benzopyran] | 17% | 30% |  | 
16 | C=C(C)[C@H]1CCC2=Cc3c(cc(-c4cccnc4)oc3=O)O[C@H]2C1 [Compound 29, (5aS,7S)-7-Isopropenyl-3-(3-pyridyl)-1H-5a,6,7,8,9-pentahydro-1-oxopyrano[4,3-b][1]benzopyran] | 21% | 39% |  | 
17 | C=C(C)[C@H]1CCC2=Cc3c(cc(-c4ccc(OC)c(OC)c4)oc3=O)OC2C1 (stereo partly drawn) [Compound 30, (5aS,7S)-7-Isopropenyl-3-(3,4-dimethoxyphenyl)-1H-5a,6,7,8,9-pentahydro-1-oxopyrano[4,3-b][1]benzopyran] | 13.3% | 21.9% |  | 
18 | O=C(O)Cc1cc2c(c(=O)o1)C=C1CCCCC1O2 (stereo not drawn) [Compound 32, 3-(Carboxymethyl)-1H-5a,6,7,8,9-pentahydro-1-oxopyrano[4,3-b][1]benzopyran] | 10.3% | 7.9% |  | 
19 | O=C(CCCCC(=O)Cc1cc2c(c(=O)o1)C=C1CCCCC1O2)Cc1cc2c(c(=O)o1)C=C1CCCCC1O2 (stereo not drawn) [Compound 33, 1,8-Di-{3-[1H-5a,6,7,8,9-pentahydro-1-oxopyrano[4,3-b][I]benzopyranyl]}-2,7-octanedione] | 57% | 76% |  | 
20 | CCCCC(=O)OCC(C)[C@H]1CCC2C(O)c3c(cc(-c4ccc(OC)c(OC)c4)oc3=O)O[C@H]2C1 (stereo partly drawn) [Compound 37, (5aS,7S)-7-[2-(1-Pentanoyloxypropyl)]-10-hydroxy-3-(3,4-dimethoxyphenyl)-1H-5a,6,7,8,9,9a,10-heptahydro-1-oxopyrano[4,3-b][1]benzopyran] | 36.8% | 52.4% |  | 
21 | tri(deacetyl)pyripyropene A [Compound 22] |  |  |  | inhibition of DNA synthesis in L1210 cells ([3]; 25 μM, 90 min + 30 min pulse): no significant effects; inhibition of DNA synthesis in L1210 cells [3, 5]: no effect; also recorded: ineffective; also recorded: fail to inhibit DNA synthesis
